Values joined by “and” are separate entries in the source; they are usually repeats but may differ in a detail not shown here. Equal values may be shown once.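 Exposure lasted 48 hours, with cells grown in 96-well plates and compounds tested at five concentrations. Abbreviation: GI50, concentration required for 50% inhibition of growth. TGI marks complete inhibition of growth.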
Assays:
Assay in all cases: NCI anticancer screen, dose series, 48 h
[1] = system: DMS 114 small cell lung
[2] = system: DMS 273 small cell lung
[3] = system: HL-60(TB) leukemia
[4] = system: HOP-92 NSCLC
[5] = system: NCI-H23 lung
[6] = system: OVCAR-3 ovarian
[7] = system: OVCAR-4 ovarian
[8] = system: SR leukemia
[9] = system: SW-620 colon
[10] = system: TK-10 renal

Compound | TGI [1] | TGI [2] | TGI [3] | TGI [4] | TGI [5] | TGI [6] | TGI [7] | TGI [8] | TGI [9] | TGI [10] | GI50 [2] | GI50 [6] | GI50 [9]
c1ccc(SC2(Sc3ccccc3)CCCC2)cc1 | > 100 µM | > 100 µM | > 100 µM | > 100 µM | > 100 µM | > 100 µM | > 100 µM | > 100 µM | > 100 µM | > 100 µM |  |  | 
CCCCCCCCCCCOC(=S)NC(C)C | 36.1 µM | 34.4 µM | 39.1 µM | 32.2 µM | 38.1 µM |  | 52 µM | 44.3 µM | 30.2 µM | 86.1 µM |  |  | 
CC1CC2C3CC(F)C4=CC(=O)C=CC4(C)C3(F)C(O)CC2(C)C1(O)C(=O)COC(=O)C(C)(C)C (stereo unspecified) | > 100 µM | > 100 µM | > 100 µM | > 100 µM | > 100 µM | > 100 µM | > 100 µM | > 100 µM | > 100 µM | > 100 µM |  |  | 
O=C(O)c1ccccc1Cc1ccco1 | > 100 µM | > 100 µM |  | > 100 µM | > 100 µM | > 100 µM | > 100 µM | > 100 µM | > 100 µM | > 100 µM |  |  | 
O=C(NCCCCCCCCNC(=O)c1cnc2ccccc2n1)c1cnc2ccccc2n1 | > 100 µM | > 100 µM | > 100 µM | > 100 µM | > 100 µM | > 100 µM | > 100 µM | > 100 µM | > 100 µM | > 100 µM |  |  | 
Nc1nc(CCC(=O)Nc2cccc(C(F)(F)F)c2)cc(-c2cccc3ccccc23)n1 | > 100 µM | > 100 µM | > 100 µM |  | > 100 µM | > 100 µM | > 100 µM | > 100 µM | > 100 µM | > 100 µM |  |  | 
CC1=C(C(=O)NCc2ccccc2)C(c2ccc(C3C(C(=O)NCc4ccccc4)=C(C)NC(C)=C3C(=O)NCc3ccccc3)cc2)C(C(=O)NCc2ccccc2)=C(C)N1 | 25.9 µM | 31.7 µM | 44.7 µM | 32.9 µM | 33.1 µM | 22.9 µM | 31.3 µM | 20.7 µM | 22.7 µM | 37.8 µM |  |  | 
CC1[C@@H]2[C@@H](C=C3C4CCC5Cc6nc7c(nc6C[C@@]5(C)C4C[C@H](O)[C@]32CO)CC2CCC3C4=C[C@H]5O[C@@]6(O[C@@](C)(CO)C[C@@H]6O)C(C)[C@@]5(O)[C@]4(C)[C@@H](O)CC3[C@]2(C)C7)O[C@]12CCC(C)(C)O2 (stereo partly specified) | > 3.65 µM |  | 0.496 µM | 0.084 µM | 0.574 µM | > 3.65 µM |  | 0.229 µM | 0.175 µM and 0.0892 µM |  | < 0.000365 µM | 1.99 µM | 0.0079 µM
CC[P+](C)(Cc1ccccc1)c1ccccc1 (stereo unspecified) | > 100 µM | > 100 µM | > 100 µM |  | > 100 µM | > 100 µM | > 100 µM | > 100 µM | > 100 µM | > 100 µM |  |  | 
FC(F)(F)C1(Cl)C(c2ccccc2)=C1c1ccccc1 | 25.6 µM | 27.6 µM | 24.4 µM | 28.4 µM | 29.3 µM | 31.2 µM | 26.6 µM | > 100 µM | 27 µM | 35.4 µM |  |  | 
CCC(C)CN1C(=O)NC(C)(Cc2ccccc2)C1=O (stereo unspecified) | > 100 µM | > 100 µM | > 100 µM | > 100 µM | > 100 µM |  |  | > 100 µM | > 100 µM | > 100 µM |  |  | 
CC1=CC2CC(C)=C(CC[C@]3(C)CC[C@H]([C@@H](C)C(=O)O)OO3)C(C)(C)C2CC1 (stereo partly specified) | 0.973 µM | 1.09 µM | 0.106 µM | 0.369 µM | 2.35 µM | 2.99 µM | 0.971 µM | 0.382 µM | 0.354 µM | 3.15 µM |  |  | 
CN(C)c1ccc2c(c1)C(=O)N(OS(=O)(=O)c1ccc([N+](=O)[O-])cc1)C2=O | > 10 µM | 43.9 µM | 76 µM | > 10 µM | 64 µM | > 10 µM | 31.5 µM | 63.8 µM | 46.8 µM | > 100 µM |  |  | 
CC1=CCC[C@@]2(C)C(CC[C@@H]2C(C)/C=C/C(C)C)c2ccc(cc2C(=O)O)C[C@@H](O)CC1 (stereo partly specified) | 40.3 µM | 34.2 µM | 31.2 µM | 28.9 µM |  | 26.8 µM | 25.6 µM | 33 µM | 32.2 µM | 25.1 µM |  |  | 
CCOc1ccccc1NC(=O)CCC(=O)OC | > 100 µM | > 100 µM | > 78.8 µM | > 100 µM | > 100 µM | > 100 µM | > 100 µM | > 100 µM | > 60.5 µM | > 100 µM |  |  | 
COc1ccc(/C(=N/NC(N)=O)C2(O)C(=O)Nc3ccc([N+](=O)[O-])cc32)cc1 (stereo unspecified) | 47.8 µM | 39.3 µM |  | 45.4 µM | 31.6 µM | 33.1 µM | 27.1 µM | 47.1 µM | 50.8 µM |  |  |  | 

Reference: PubChem BioAssay (NCI)
